According to patent publication US8729031B2, “Compounds” (priority 2009, dated 2014):
In brackets after ≈: the same amount, converted by molar mass.

Legend:
E. faecium = assay: MIC susceptibility testing, vancomycin resistant Enterococci (E. faecium); format: cell-based
Experimental: (§1) Susceptibility testing with the exception of Streptococcus pneumoniae was performed by two-fold serial dilutions in Mueller Hinton Broth supplemented with 50 μg/mL Ca^2+. Susceptibility testing of S. pneumoniae was performed by two-fold serial dilutions in Brain-Heart-Infusion Broth supplemented with 50 μg/mL Ca^2+.

E. faecalis = assay: MIC susceptibility testing, vancomycin resistant Enterococci (E. faecalis); format: cell-based; conditions: E. faecalis 9758512, vancomycin resistant
Experimental: as §1

Streptococcus pneumoniae = assay: microbe, parasite or virus in culture; format: cell-based
Experimental: as §1

[1] = test system: Staphylococcus aureus methicillin resistant ATCC 33591; assay: Mouse bacteraemia model; format: in vivo
Experimental: Groups of 6 male CD-1 (Crl.) derived mice weighing 24±2 g were used. Mice were inoculated intraperitoneally (IP) with an LD90-100 of Staphylococcus aureus methicillin resistant ATCC 33591 (1.1×10^7CFU/mouse) in 0.5 mL of BHI broth containing 5% mucin. The compound of example 1a and vancomycin were dissolved in 15% HPbetaCD/4.4% glucose/0.5 mM KH2PO4, pH 5.0 at doses of 1, 3, 5, 10 and 20 mg/Kg and were administered subcutaneously (SC) to test animals at 0, 2 and 24 hour(s) after bacteria challenge. The dosing volume was 5 mL/Kg. Mortality was recorded once daily for 7 days. The ED50 for each compound was determined by nonlinear regression.

[2] = test system: Methicillin Resistant Staphylococcus aureus (MRSA, ATCC 33591); assay: Neutropaenic mouse thigh infection model; format: in vivo; conditions: for antimicrobial effect in thigh infection: IV at 5, 10, 20, 30 and 40 mg/Kg×2
Experimental: In vivo efficacy of compounds of the present invention in the treatment of bacterial tissue infections was evaluated using a neutropaenic mouse thigh model. Groups of 6 male ICR mice weighing 24±2 g were used. Test animals were immunosuppressed by 2 intraperitoneal injections of cyclophosphamide, the first at 150 mg/Kg 4 days before infection (day-4) and the second at 100 mg/Kg 1 day before infection (day-1). On day 0, individual animals were inoculated intramuscularly (IM) into the right thigh of test animals with 1.15×10^5 CFU/mouse of Methicillin Resistant Staphylococcus aureus (MRSA, ATCC 33591) suspended in 100 μL of sterile PBS, pH 7.4. Vehicle and test substances were administered intravenously (IV) at a dose volume of 8 mL/Kg, 2 and 14 hours after thigh infection. Example 1a (Compound I) and vancomycin were dissolved in 15% hydroxypropyl-β-cyclodextrin/4.4% glucose/1 mM potassium phosphate buffer, pH 7.0 and administered at doses of 5, 10, 20, 30 and 40 mg/Kg. At 26 hours after inoculation, muscle of the right thigh of each test mouse was harvested. From an additional group with no treatment, muscle of the right thigh was harvested at 2 hours after inoculation for the basal CFU determination. The removed muscle tissues were then homogenized in 3-4 mL of PBS, pH 7.4 with a ceramic mortar. Homogenates of 0.1 mL were used for serial 10-fold dilutions and plated on Mueller Hinton broth in 1.5% Bacto agar for CFU determination.

[3] = In vivo plasma half-life in mice; conditions: mouse, 29.76 mg/kg, male CD-1 mice, IV, 9.3 mL/Kg of 3.2 mg/mL solution
Experimental: The in vivo half-life of Example 1a in mice was determined by measurement of its plasma concentrations at various time points following IV dosing. 18 male CD-1 mice aged 7-9 weeks were dosed IV with a 9.3 mL/Kg dose of a 3.2 mg/mL solution of Example 1a in 15% hydroxyl-propyl-β-cyclodextrin/4.4% glucose/1 mM potassium phosphate (pH=7.6). Plasma samples were obtained at 10, 20, 30, 60, 120 and 240 min post-dose, sampling from 3 animals at each time point. Concentrations of Example 1a in plasma were determined by LC-MS quantification.

Q: What does the source list for `CC[C@H](C)[C@@H]1NC(=O)[C@@H]2NC(=O)[C@H](CC(C)C)NC(=O)[C@H](NC(=O)[C@@H]3CSC[C@@H](N)C(=O)N[C@@H](CO)C(=O)NCC(=O)N[C@@H](Cc4c[nH]c5ccccc45)C(=O)N[C@@H](C(C)C)C(=O)N3)[C@H](C)SC[C@H](NC(=O)[C@H](CCC(=O)O)NC1=O)C(=O)NCC(=O)N[C@H]1C(=O)N[C@@H](CC(C)C)C(=O)N[C@@H](C(C)C)C(=O)N[C@@H](CS[C@H]2C)C(=O)N[C@@H](C)C(=O)N[C@H](C(=O)NCc2cc(Cl)cc(Cl)c2)CS[C@H]1C` [Example 1, Deoxyactagardine B (3,5-dichlorobenzylamine)monocarboxamide]?
A: MIC (E. faecium; E. faecium 7662769, vancomycin resistant): 8 µg/mL (≈ 3.94 µM); MIC (E. faecium; E. faecium 7860190, vancomycin resistant): 4 to 8 µg/mL; MIC (E. faecium; E. faecium 9710577, vancomycin resistant): 8 µg/mL (≈ 3.94 µM); MIC (E. faecalis): 8 µg/mL (≈ 3.94 µM); MIC (Streptococcus pneumoniae; isolate QB37301, penicillin Resistant): 2 µg/mL (≈ 0.984 µM); MIC (Streptococcus pneumoniae; isolate QB37302, penicillin Resistant): 1 µg/mL (≈ 0.492 µM); MIC (Streptococcus pneumoniae; isolate QB37303, penicillin Intermediate): 0.25 µg/mL (≈ 0.123 µM); MIC (Streptococcus pneumoniae; isolate QB37304, penicillin Susceptible): 0.25 µg/mL (≈ 0.123 µM); MIC (Streptococcus pneumoniae; isolate QB37305, penicillin Susceptible): 1 µg/mL (≈ 0.492 µM); MIC (Streptococcus pneumoniae; isolate QB37306, penicillin Susceptible): 0.25 to 0.5 µg/mL; MIC (Streptococcus pneumoniae; isolate QB37307, penicillin Intermediate): 0.5 to 1 µg/mL; MIC (Streptococcus pneumoniae; isolate QB37308, penicillin Susceptible): 0.25 to 0.5 µg/mL; MIC (Streptococcus pneumoniae; isolate QB37309, penicillin Resistant): 2 µg/mL (≈ 0.984 µM); MIC (Streptococcus pneumoniae; isolate QB37310, penicillin Resistant): 0.25 µg/mL (≈ 0.123 µM); MIC (Streptococcus pneumoniae; isolate QB37311, penicillin Resistant): 0.03 µg/mL (≈ 0.0148 µM); MIC (Streptococcus pneumoniae; isolate QB37312, penicillin Intermediate): 0.5 µg/mL (≈ 0.246 µM); MIC (Streptococcus pneumoniae; isolate QB37313, penicillin Susceptible): 0.03 µg/mL (≈ 0.0148 µM); MIC (Streptococcus pneumoniae; isolate QB37314, penicillin Resistant): 1 µg/mL (≈ 0.492 µM); MIC (Streptococcus pneumoniae; isolate QB37315, penicillin Susceptible): 0.25 µg/mL (≈ 0.123 µM); MIC (Streptococcus pneumoniae; isolate QB37316, penicillin Susceptible): 2 µg/mL (≈ 0.984 µM); MIC (Streptococcus pneumoniae; isolate QB37317, penicillin Susceptible): 0.25 µg/mL (≈ 0.123 µM); MIC (Streptococcus pneumoniae; isolate QB37318, penicillin Resistant): 0.25 µg/mL (≈ 0.123 µM); MIC (Streptococcus pneumoniae; isolate QB37319, penicillin Resistant): 1 µg/mL (≈ 0.492 µM); MIC (Streptococcus pneumoniae; isolate QB37320, penicillin Intermediate): 1 µg/mL (≈ 0.492 µM)

Q: Which survival rate ([1]; 3 mg/Kg, SC) does the source give for `CC[C@H](C)[C@@H]1NC(=O)[C@@H]2NC(=O)[C@H](CC(C)C)NC(=O)[C@H](NC(=O)[C@@H]3CSC[C@@H](N)C(=O)N[C@@H](CO)C(=O)NCC(=O)N[C@@H](Cc4c[nH]c5ccccc45)C(=O)N[C@@H](C(C)C)C(=O)N3)[C@H](C)SC[C@H](NC(=O)[C@H](CCC(=O)O)NC1=O)C(=O)NCC(=O)N[C@H]1C(=O)N[C@@H](CC(C)C)C(=O)N[C@@H](C(C)C)C(=O)N[C@@H](CS[C@H]2C)C(=O)N[C@@H](C)C(=O)N[C@H](C(=O)NCc2cc(Cl)cc(Cl)c2)CS[C@H]1C` [Example 1a] here?
A: The survival rate was 100%.

Q: And the “antimicrobial effect against S. aureus (MR) in mice” value ([1]; 3, 5, 10 and 20 mg/Kg×3, SC)?
A: Its value is “significant antimicrobial effect”.

Q: And the “increase in survival rate” value ([1]; 3, 5, 10 and 20 mg/Kg×3, SC)?
A: The value was “at least 50%”.

Q: What about the “estimated ED50” value ([1]; SC at 0, 2 and 24 h after challenge, mortality over 7 days, nonlinear regression) of the same compound?
A: Its value is 1.07 mg/kg.

Q: And the “antimicrobial effect in thigh infection” value [2]?
A: Its value is “significant antimicrobial effect”.

Q: And the “reduction in CFU/g” value ([2]; IV ×2 (2 and 14 h), 10 mg/kg and above, thigh muscle at 26 h)?
A: Its value is over 1000 fold.

Q: And the half-life [3]?
A: Its half-life is about 2 h.

Q: Which “antimicrobial effect against S. aureus (MR) in mice” value ([1]; 3, 5, 10 and 20 mg/Kg×3, SC) does the source give for `CN[C@H](CC(C)C)C(=O)N[C@H]1C(=O)N[C@@H](CC(N)=O)C(=O)N[C@H]2C(=O)N[C@H]3C(=O)N[C@H](C(=O)N[C@H](C(=O)O)c4cc(O)cc(O)c4-c4cc3ccc4O)[C@H](O)c3ccc(c(Cl)c3)Oc3cc2cc(c3O[C@@H]2O[C@H](CO)[C@@H](O)[C@H](O)[C@H]2O[C@H]2C[C@](C)(N)[C@H](O)[C@H](C)O2)Oc2ccc(cc2Cl)[C@H]1O` [vancomycin, reference compound] here?
A: Its value is “significant antimicrobial effect”.

Q: And the ED50 ([1]; Staphylococcus aureus, ATCC33591, SC at 0, 2 and 24 h after challenge, mortality over 7 days, nonlinear regression, read-out: estimated ED50)?
A: Its ED50 is 3 mg/kg.

Q: What about the “antimicrobial effect in thigh infection” value [2] of the same compound?
A: Its value is “significant antimicrobial effect”.

Q: And the “reductions of CFU/g” value ([2]; IV ×2 (2 and 14 h), 30 mg/kg and above, thigh muscle at 26 h)?
A: The value was over 100 fold.
